Assay results from the kinase profiling compilation of Christmann-Franck et al. (2016).

What was measured:
Assay in all cases: radiometric filter-binding kinase assay, Kinase HotSpot
Conditions in all cases: compound 0.5 µM; ATP 10 µM
[1] = molecular target: GRK7 (human) (UniProt Q8WTQ7)
[2] = molecular target: FES (human) (UniProt P07332)
[3] = molecular target: INSR (human) (UniProt P06213)
[4] = molecular target: PLK1 (human) (UniProt P53350)
[5] = molecular target: BLK (human) (UniProt P51451)
[6] = molecular target: CDK5 CDK5R1 p35 (human) (UniProt Q00535+Q15078)
[7] = molecular target: CDK4 CCND3 (human) (UniProt P30281+P11802)
[8] = molecular target: MAPK11 (human) (UniProt Q15759)
[9] = molecular target: EPHA7 (human) (UniProt Q15375)
[10] = molecular target: MKNK2 (human) (UniProt Q9HBH9)
[11] = molecular target: SGK3 (human) (UniProt Q96BR1)
[12] = molecular target: MST4 (human) (UniProt Q9P289)
[13] = molecular target: STK25 (human) (UniProt O00506)
[14] = molecular target: SIK2 (human) (UniProt Q9H0K1)
[15] = molecular target: TBK1 (human) (UniProt Q9UHD2)
[16] = molecular target: HIPK1 (human) (UniProt Q86Z02)
[17] = molecular target: NEK9 (human) (UniProt Q8TD19)
[18] = molecular target: TSSK2 (human) (UniProt Q96PF2)
[19] = molecular target: AKT1 (human) (UniProt P31749)
[20] = molecular target: MAPK13 (human) (UniProt O15264)
[21] = molecular target: RPS6KB1 (human) (UniProt P23443)
[22] = molecular target: PLK2 (human) (UniProt Q9NYY3)
[23] = molecular target: GSK3B (human) (UniProt P49841)
[24] = molecular target: FYN (human) (UniProt P06241)
[25] = molecular target: AXL (human) (UniProt P30530)
[26] = molecular target: FGFR2 (human) (UniProt P21802)
[27] = molecular target: BTK (human) (UniProt Q06187)
[28] = molecular target: CDK7 CCNH MNAT1 (human) (UniProt P50613+P51948+P51946)
[29] = molecular target: MARK4 (human) (UniProt Q96L34)
[30] = molecular target: PAK6 (human) (UniProt Q9NQU5)
[31] = molecular target: DCLK2 (human) (UniProt Q8N568)
[32] = molecular target: STK17A (human) (UniProt Q9UEE5)
[33] = molecular target: CSNK1D (human) (UniProt P48730)
[34] = molecular target: SRPK3 (human) (UniProt Q9UPE1)
[35] = molecular target: DAPK3 (human) (UniProt O43293)
[36] = molecular target: PRKD2 (human) (UniProt Q9BZL6)
[37] = molecular target: DDR2 (human) (UniProt Q16832)
[38] = molecular target: CDK4 CCND1 (human) (UniProt P24385+P11802)
[39] = molecular target: EPHA5 (human) (UniProt P54756)
[40] = molecular target: SRPK1 (human) (UniProt Q96SB4)
[41] = molecular target: PRKCD (human) (UniProt Q05655)
[42] = molecular target: IKBKB (human) (UniProt O14920)

Sequence of TBK1 (human) (Q9UHD2 whole entry, looked up): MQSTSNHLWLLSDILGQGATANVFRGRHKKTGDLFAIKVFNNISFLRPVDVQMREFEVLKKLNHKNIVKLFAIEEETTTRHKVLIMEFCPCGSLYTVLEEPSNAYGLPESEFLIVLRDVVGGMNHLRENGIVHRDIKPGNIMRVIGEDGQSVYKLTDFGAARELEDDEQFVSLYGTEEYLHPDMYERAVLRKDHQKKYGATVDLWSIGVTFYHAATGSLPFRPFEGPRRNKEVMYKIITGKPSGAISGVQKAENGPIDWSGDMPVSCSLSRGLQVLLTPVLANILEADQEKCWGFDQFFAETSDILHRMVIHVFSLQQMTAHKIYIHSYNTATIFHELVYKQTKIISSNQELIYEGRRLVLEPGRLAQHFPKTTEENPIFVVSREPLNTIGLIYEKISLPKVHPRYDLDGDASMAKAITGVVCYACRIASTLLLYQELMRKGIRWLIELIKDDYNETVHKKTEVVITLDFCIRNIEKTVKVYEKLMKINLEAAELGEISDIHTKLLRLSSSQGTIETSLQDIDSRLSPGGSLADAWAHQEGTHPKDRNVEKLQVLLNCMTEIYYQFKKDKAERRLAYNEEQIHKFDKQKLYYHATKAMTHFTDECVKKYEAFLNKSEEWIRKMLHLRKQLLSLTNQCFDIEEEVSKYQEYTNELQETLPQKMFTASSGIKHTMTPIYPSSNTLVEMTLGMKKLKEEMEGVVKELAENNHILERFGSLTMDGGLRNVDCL
Sequence of MST4 (human) (Q9P289 whole entry, looked up): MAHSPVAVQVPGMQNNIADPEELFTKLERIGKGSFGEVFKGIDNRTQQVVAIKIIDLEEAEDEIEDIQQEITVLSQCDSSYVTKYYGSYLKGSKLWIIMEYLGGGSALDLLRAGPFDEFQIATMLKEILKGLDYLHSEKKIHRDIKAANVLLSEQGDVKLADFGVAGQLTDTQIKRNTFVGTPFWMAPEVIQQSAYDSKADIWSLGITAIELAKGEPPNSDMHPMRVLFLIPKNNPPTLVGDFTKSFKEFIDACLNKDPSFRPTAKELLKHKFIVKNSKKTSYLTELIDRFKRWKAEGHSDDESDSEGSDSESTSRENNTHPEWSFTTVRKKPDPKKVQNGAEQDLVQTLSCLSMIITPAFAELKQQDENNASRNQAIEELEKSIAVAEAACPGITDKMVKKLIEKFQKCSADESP
Sequence of MAPK13 (human) (O15264 whole entry, looked up): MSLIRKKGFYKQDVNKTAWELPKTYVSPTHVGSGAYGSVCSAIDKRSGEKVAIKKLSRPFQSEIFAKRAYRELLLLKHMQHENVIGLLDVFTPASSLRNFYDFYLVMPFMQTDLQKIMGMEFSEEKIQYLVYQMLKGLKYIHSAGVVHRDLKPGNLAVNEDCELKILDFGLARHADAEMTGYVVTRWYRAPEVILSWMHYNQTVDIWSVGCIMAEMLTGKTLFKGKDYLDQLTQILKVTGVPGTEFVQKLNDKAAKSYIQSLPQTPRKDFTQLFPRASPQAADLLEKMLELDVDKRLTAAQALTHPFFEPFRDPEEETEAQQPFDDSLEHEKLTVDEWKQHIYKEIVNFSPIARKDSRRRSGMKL
Sequence of CDK4 CCND1 (human) (P11802 whole entry, looked up): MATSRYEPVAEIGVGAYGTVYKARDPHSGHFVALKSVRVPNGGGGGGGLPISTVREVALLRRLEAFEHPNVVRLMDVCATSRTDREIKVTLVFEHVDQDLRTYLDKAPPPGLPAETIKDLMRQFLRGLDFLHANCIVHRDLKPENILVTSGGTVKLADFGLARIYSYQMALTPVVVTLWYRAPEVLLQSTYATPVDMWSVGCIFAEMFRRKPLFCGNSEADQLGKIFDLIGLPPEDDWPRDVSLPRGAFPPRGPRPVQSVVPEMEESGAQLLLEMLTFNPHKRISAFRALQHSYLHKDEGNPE
Sequence of CDK4 CCND1 (human) (P24385 whole entry, looked up): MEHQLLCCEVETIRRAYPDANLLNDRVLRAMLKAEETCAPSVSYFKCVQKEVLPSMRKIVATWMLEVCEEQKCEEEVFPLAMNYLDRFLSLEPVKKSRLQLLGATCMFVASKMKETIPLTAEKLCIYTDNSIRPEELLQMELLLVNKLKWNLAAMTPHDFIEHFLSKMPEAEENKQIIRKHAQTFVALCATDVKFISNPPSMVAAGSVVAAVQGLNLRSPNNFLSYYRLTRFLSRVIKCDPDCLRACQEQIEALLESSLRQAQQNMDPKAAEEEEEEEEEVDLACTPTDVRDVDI
Sequence of CDK4 CCND3 (human) (P11802 whole entry, looked up): as the sequence (P11802 whole entry, looked up) above
Sequence of CDK4 CCND3 (human) (P30281 whole entry, looked up): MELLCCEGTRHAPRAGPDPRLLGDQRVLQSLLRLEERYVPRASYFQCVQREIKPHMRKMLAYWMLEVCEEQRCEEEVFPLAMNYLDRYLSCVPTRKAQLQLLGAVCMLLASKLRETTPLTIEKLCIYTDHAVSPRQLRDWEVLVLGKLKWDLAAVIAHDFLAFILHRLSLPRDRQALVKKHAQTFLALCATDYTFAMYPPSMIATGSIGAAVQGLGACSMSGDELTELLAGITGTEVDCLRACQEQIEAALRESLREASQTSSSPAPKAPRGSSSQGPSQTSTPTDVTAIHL
Sequence of BLK (human) (P51451 whole entry, looked up): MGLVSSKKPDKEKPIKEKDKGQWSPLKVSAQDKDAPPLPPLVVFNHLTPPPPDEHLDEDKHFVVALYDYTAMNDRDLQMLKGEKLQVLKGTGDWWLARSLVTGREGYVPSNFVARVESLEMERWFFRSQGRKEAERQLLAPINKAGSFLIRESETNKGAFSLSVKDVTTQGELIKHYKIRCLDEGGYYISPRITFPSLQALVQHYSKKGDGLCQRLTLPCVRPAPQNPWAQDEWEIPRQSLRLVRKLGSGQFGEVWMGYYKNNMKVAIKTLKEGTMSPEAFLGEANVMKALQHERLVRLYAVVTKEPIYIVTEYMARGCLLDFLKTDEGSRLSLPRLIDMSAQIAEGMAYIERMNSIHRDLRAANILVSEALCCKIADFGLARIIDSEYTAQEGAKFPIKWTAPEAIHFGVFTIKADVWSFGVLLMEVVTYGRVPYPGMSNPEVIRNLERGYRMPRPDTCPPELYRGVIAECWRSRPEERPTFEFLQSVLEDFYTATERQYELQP
Sequence of FES (human) (P07332 whole entry, looked up): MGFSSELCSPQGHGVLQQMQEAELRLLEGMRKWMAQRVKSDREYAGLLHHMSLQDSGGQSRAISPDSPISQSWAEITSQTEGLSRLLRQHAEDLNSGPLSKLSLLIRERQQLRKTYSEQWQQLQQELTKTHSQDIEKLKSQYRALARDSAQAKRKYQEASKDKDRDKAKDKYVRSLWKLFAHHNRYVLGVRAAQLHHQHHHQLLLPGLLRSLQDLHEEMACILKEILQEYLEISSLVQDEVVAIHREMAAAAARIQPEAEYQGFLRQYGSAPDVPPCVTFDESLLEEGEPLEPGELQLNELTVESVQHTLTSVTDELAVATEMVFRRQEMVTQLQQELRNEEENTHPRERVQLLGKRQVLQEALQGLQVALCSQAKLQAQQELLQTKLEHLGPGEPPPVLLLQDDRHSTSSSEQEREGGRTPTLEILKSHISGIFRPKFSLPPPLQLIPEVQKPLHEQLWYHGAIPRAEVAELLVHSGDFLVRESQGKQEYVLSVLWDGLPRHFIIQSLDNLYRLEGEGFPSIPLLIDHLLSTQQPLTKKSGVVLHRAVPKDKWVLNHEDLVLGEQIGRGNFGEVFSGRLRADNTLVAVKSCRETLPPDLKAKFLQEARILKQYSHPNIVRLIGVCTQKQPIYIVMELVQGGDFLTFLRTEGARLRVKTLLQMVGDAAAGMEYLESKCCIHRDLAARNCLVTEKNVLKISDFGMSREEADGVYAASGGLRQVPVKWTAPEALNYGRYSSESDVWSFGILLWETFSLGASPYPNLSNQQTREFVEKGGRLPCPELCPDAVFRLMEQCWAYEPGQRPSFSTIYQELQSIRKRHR
Sequence of SGK3 (human) (Q96BR1 whole entry, looked up): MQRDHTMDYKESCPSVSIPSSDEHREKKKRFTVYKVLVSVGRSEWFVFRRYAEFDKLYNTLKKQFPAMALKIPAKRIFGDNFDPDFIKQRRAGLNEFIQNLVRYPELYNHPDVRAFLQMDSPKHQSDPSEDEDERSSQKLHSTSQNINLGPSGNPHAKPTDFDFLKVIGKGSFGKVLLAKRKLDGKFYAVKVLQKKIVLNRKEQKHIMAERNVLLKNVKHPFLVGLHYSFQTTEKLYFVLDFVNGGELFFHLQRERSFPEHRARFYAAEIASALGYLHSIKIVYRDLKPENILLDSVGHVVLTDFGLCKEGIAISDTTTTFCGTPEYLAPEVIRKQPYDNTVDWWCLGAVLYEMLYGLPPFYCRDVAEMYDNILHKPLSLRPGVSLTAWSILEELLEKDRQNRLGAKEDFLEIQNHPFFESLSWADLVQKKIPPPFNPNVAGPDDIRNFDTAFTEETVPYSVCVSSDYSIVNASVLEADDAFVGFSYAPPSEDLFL
Sequence of MKNK2 (human) (Q9HBH9 whole entry, looked up): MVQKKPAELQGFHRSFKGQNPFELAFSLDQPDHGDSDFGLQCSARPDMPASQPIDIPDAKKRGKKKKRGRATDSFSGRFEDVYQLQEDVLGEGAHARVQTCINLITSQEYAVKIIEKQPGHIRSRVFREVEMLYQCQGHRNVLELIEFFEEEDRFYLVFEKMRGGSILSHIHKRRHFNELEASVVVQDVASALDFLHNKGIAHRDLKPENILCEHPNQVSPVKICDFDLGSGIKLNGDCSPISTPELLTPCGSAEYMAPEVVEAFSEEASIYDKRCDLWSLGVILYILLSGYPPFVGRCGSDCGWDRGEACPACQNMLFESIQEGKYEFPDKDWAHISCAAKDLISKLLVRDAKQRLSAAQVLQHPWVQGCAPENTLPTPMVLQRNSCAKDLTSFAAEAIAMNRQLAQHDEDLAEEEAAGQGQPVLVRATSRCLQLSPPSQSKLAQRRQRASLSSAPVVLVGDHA

With NC(=O)c1ccc(N(C(N)=O)c2c(F)cccc2F)nc1-c1ccc(F)cc1F the residual activity [1] was 108%, the residual activity [2] was 99% and the residual activity [3] was 104%. The residual activity [4] was 95.1%, the residual activity [5] was 100% and the residual activity [6] was 99.9%. For the same molecule, the residual activity [7] was 98.4%, the residual activity [8] was 22.3% and the residual activity [9] was 79.9%. It also gave a residual activity [10] of 101%, a residual activity [11] of 99.9% and a residual activity [12] of 117%. For the same molecule, the residual activity [13] was 97.1%, the residual activity [14] was 95.1% and the residual activity [15] was 106%. The residual activity [16] was 100%, the residual activity [17] was 104% and the residual activity [18] was 88.6%. It also gave a residual activity [19] of 84.7%, a residual activity [20] of 94% and a residual activity [21] of 100%. It also gave a residual activity [22] of 102%, a residual activity [23] of 101% and a residual activity [24] of 110%. The residual activity [25] was 101%, the residual activity [26] was 99.5% and the residual activity [27] was 98.2%. For the same molecule, the residual activity [28] was 102%, the residual activity [29] was 102% and the residual activity [30] was 103%. It also gave a residual activity [31] of 97.5%, a residual activity [32] of 100% and a residual activity [33] of 89.8%. For the same molecule, the residual activity [34] was 105%, the residual activity [35] was 107% and the residual activity [36] was 81.8%. For the same molecule, the residual activity [37] was 100%, the residual activity [38] was 96.8% and the residual activity [39] was 105%. It also gave a residual activity [40] of 99%, a residual activity [41] of 104% and a residual activity [42] of 94.8%.

Cc1ccc(NC(=O)c2ccc(CN3CCN(C)CC3)cc2)cc1Nc1nc(-c2cccnc2)cs1 showed a residual activity [1] of 104%, a residual activity [2] of 105% and a residual activity [3] of 99%. The residual activity [4] was 101%, the residual activity [5] was 57.5% and the residual activity [6] was 100%. For the same molecule, the residual activity [7] was 115%, the residual activity [8] was 102% and the residual activity [9] was 99.7%. It also gave a residual activity [10] of 103%, a residual activity [11] of 95.6% and a residual activity [12] of 97%. The residual activity [13] was 95.5%, the residual activity [14] was 99.7% and the residual activity [15] was 97%. The residual activity [16] was 97.4%, the residual activity [17] was 98.6% and the residual activity [18] was 102%. For the same molecule, the residual activity [19] was 93.2%, the residual activity [20] was 101% and the residual activity [21] was 104%. For the same molecule, the residual activity [22] was 97.9%, the residual activity [24] was 37.3% and the residual activity [25] was 86.5%. It also gave a residual activity [26] of 100%, a residual activity [27] of 99.6% and a residual activity [28] of 110%. It also gave a residual activity [29] of 101%, a residual activity [30] of 101% and a residual activity [31] of 102%. For the same molecule, the residual activity [32] was 104%, the residual activity [33] was 92.7% and the residual activity [34] was 102%. It also gave a residual activity [35] of 100%, a residual activity [36] of 98.2% and a residual activity [37] of 36.4%. It also gave a residual activity [38] of 94.1%, a residual activity [39] of 104% and a residual activity [40] of 98.9%. For the same molecule, the residual activity [41] was 97.9% and the residual activity [42] was 97.8%.

For O=C(NC(NC(=S)Nc1ccc(F)c([N+](=O)[O-])c1)C(Cl)(Cl)Cl)C(c1ccccc1)c1ccccc1 (centres undefined), the residual activity [1] was 101%, the residual activity [2] was 104% and the residual activity [3] was 100%. For the same molecule, the residual activity [4] was 111%, the residual activity [5] was 110% and the residual activity [7] was 93.7%. The residual activity [8] was 104%, the residual activity [9] was 109% and the residual activity [10] was 135%. The residual activity [11] was 85.8%, the residual activity [12] was 89.3% and the residual activity [13] was 96.2%. The residual activity [14] was 112%, the residual activity [15] was 98.7% and the residual activity [16] was 108%. For the same molecule, the residual activity [17] was 110%, the residual activity [18] was 92.7% and the residual activity [19] was 118%. The residual activity [20] was 107%, the residual activity [21] was 91.9% and the residual activity [22] was 92.9%. For the same molecule, the residual activity [23] was 109%, the residual activity [24] was 91.2% and the residual activity [25] was 112%. It also gave a residual activity [26] of 97.7%, a residual activity [27] of 104% and a residual activity [28] of 99%. For the same molecule, the residual activity [29] was 104%, the residual activity [30] was 101% and the residual activity [31] was 108%. It also gave a residual activity [32] of 99.8%, a residual activity [33] of 105% and a residual activity [34] of 98%. The residual activity [35] was 103%, the residual activity [36] was 107% and the residual activity [37] was 96.4%. It also gave a residual activity [38] of 116%, a residual activity [39] of 107% and a residual activity [40] of 99.3%. It also gave a residual activity [41] of 91.2% and a residual activity [42] of 102%.
